Consider one substance from US20070149456A1, “Epithelial sodium channel inhibiting agents and uses therefor” (University of Pittsburgh, priority 2005, published 2007).

Where two headings read alike, the source gives them in different places.

This test has as its target T1, mouse ENaC (Mus musculus, UniProt Q61180+Q9WU38+Q9WU39, DEL206-231).
T1 construct: expressed in transfected cells; host or cells: Xenopus laevis oocytes (cRNA injection)
T1 sequence (Q61180 with tags, fused parts or gaps DEL206-231): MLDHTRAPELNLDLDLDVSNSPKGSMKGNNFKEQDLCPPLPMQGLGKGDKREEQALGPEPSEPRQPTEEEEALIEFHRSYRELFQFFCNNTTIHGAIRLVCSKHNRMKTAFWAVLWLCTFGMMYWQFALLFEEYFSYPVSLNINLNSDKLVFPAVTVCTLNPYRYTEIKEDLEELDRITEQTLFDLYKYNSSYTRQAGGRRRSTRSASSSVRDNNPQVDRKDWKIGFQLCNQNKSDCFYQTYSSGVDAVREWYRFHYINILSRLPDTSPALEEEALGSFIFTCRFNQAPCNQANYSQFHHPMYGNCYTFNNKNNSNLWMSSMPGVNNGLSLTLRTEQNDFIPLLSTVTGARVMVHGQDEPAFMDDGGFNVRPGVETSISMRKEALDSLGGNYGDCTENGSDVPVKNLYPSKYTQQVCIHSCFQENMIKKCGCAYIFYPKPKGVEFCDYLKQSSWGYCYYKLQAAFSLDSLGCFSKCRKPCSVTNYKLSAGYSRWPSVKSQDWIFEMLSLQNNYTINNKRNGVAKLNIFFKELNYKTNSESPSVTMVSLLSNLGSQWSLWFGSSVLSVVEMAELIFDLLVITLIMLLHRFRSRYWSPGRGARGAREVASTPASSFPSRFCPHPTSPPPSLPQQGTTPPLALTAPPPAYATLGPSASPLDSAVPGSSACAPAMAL
T1 sequence (Q9WU38 1-638): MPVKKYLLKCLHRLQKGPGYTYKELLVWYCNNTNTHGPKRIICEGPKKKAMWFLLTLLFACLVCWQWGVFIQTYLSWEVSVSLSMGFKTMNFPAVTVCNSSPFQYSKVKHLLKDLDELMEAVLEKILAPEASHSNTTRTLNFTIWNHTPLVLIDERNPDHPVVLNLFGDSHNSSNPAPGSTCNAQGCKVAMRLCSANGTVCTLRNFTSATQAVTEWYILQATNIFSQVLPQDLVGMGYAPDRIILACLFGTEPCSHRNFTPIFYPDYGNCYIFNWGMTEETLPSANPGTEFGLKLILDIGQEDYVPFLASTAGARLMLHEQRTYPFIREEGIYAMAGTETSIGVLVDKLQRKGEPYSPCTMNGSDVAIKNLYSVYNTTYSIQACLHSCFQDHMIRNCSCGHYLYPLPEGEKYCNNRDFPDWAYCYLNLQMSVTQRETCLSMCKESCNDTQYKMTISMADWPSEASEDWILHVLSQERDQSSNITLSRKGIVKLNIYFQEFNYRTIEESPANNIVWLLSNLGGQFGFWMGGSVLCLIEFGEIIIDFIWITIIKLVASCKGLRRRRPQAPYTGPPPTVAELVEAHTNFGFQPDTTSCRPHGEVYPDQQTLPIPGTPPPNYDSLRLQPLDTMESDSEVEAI
T1 sequence (Q9WU39 1-655): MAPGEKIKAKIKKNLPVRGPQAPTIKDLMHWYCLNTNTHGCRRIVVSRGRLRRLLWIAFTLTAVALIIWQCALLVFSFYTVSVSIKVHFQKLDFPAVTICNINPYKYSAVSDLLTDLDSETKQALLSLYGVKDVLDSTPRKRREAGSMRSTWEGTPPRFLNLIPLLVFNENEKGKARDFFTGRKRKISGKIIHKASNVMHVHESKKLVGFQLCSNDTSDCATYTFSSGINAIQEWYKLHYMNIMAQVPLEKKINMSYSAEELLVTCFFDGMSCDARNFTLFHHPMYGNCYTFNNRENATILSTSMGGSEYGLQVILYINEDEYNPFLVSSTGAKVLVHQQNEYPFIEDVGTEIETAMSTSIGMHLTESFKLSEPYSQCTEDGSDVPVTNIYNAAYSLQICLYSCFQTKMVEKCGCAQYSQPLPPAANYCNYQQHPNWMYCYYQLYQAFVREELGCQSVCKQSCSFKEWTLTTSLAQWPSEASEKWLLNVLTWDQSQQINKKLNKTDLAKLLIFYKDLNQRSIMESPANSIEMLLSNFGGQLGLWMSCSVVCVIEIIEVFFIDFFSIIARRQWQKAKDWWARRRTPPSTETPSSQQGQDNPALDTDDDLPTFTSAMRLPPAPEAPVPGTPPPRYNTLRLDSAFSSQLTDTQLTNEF
Description: Two-electrode voltage clamp, amiloride-sensitive whole cell Na+ current in Xenopus oocytes expressing wild-type αβγ ENaC. In kind it is cell-based. The source says: Oocyte Expression—cRNAs for α, β, γ mouse ENaC (wild-type and mutant) subunits and mouse prostasin were synthesized with T3 or T7 m-Message mMachineTM (Ambion, Austin, Tex.). Subunits carrying furin cleavage consensus site mutations and the corresponding wild-type subunits have amino-terminal HA and carboxyl-terminal V5 tags (Hughey, R. P., Bruns, J. B., Kinlough, C. L., Harkleroad, K. L., Tong, Q., Carattino, M. D., Johnson, J. P., Stockand, J. D., and Kleyman, T. R. (2004) J. Biol. Chem. 279, 18111-18114 18). Stage V-VI Xenopus laevis oocytes were pretreated with 1.5 mg/ml of type IV collagenase and injected with 0.5-2 ng of cRNA/subunit. Injected oocytes were maintained as previously reported (Carattino, M. D., Hill, W. G., and Kleyman, T. R. (2003), Arachidonic Acid Regulates Surface Expression of Epithelial Sodium Channels, J Biol. Chem. 278, 36202-36213 29).
Two-electrode Voltage Clamp—Two-electrode voltage clamp (TEV) was performed as previously described (Carattino, M. D., Hill, W. G., and Kleyman, T. R. (2003) J Biol. Chem. 278, 36202-36213 29). The extracellular solution (TEV solution) was (in mM): 110 NaCl, 2 KCl, 1.54 CaCl2, 10 HEPES, pH 7.4, or otherwise as indicated. […] Experiments with oocytes co-expressing ENaC and prostasin and the corresponding controls were performed in the presence of aprotinin (1 μM) to impede any potential degradation of α-26 by prostasin.
Data and Statistical Analyses—and mean time of inhibition are expressed as the mean with a 95% confidence interval (CI); otherwise, data were expressed as the mean ±S.E. (n), where “n” equals the number of independent experiments analyzed. IC50 was estimated from normalized currents plotted as a function of the peptide concentration fitted, as shown in Equation 1 y=t/(1+10^(logX−log/C50)) (Eq. 1) where y is the response variable, X is the concentration of peptide, and IC50 is the concentration of peptide that provokes a response half way between the baseline (t) and maximum response. […] Results
In general terms: In two-electrode clamp one electrode senses voltage and the other passes current.

Consider “Ac-DLRGALPHPLQRLRTPPPPNPARSAR-NH2 [α-26]”, for which the inhibitory constant (Ki) – broadly, a dissociation constant, usually derived from enzyme kinetics or from competition with a known ligand – is ~3000 nM. In addition, the “time required to achieve half maximal inhibition” value (1 μM α-26) is listed as 42 s. The half-inhibitory concentration (IC50) (as a rule, the concentration that gives 50% inhibition) (amiloride-sensitive current, 3 min perfusion with peptide (FIG. 3A), read-out: IC50, inhibition of wild-type αβγ) was found to be 2800 nM. Also, under “holding potential −20 mV, read-out: IC50 at holding potential −20 mV”, the IC50 amounted to 2900 nM. Also, the 50% inhibitory concentration (IC50) (holding potential −100 mV, read-out: IC50 at holding potential −100 mV) stood at 2900 nM. Where the note is “α-26 1 μM, washout (FIG. 3D)”, the reversibility of block entry was “reversible inhibitor”.
